Source: patent US20100331269A1, “TRITERPENES DERIVATIVES AND USES THEREOF AS ANTITUMOR AGENTS OR ANTI-INFLAMMATORY AGENTS” (priority 2006, published 2010)

Assays:
[1] = tested on: DLD-1 human colorectal adenocarcinoma cells; assay: Cytotoxicity, resazurin metabolism assay, DLD-1; assay type: cell-based; conditions: 48 h, mean ± SD
In short: (§1)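 Cells plated at 5×10^3/well, adhered 16 h, then exposed to increasing compound concentrations (DMSO) for 48 h. Viability by resazurin reduction, fluorescence ex 530/em 590 nm, blank-subtracted versus control wells; IC50 as mean±SD from three experiments in triplicate.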

[2] = tested on: B16-F1 mouse melanoma cells; assay: Cytotoxicity, resazurin metabolism assay, B16-F1; assay type: cell-based; conditions: 48 h, mean ± SD
In short: as §1

[3] = Toxicity of treatment by body weight of tumour-bearing mice; conditions: Lewis lung cancer-bearing mice, IP treatment, day 13
Source text: Individual dose were based on the body weight of each mouse.

[4] = tested on: PC-3 human prostate adenocarcinoma cells; assay: Cytotoxicity, resazurin metabolism assay, PC-3; assay type: cell-based; conditions: mean ± SD
Source text: (§2) Human lung carcinoma (A-549), human colon adenocarcinoma (DLD-1), human normal fibroblasts (WS1), mice melanoma (B16-F1), Human glioma (U-251), Human hepatocellular carcinoma (HEP G2), Human prostate adenocarcinoma (PC-3), Human ovary teratocarcinoma metastatic (PA-1), Human breast adenocarcinona metastatic (MDA-MB-231), Human breast adenocarcinoma (MCF-7) and Human malignant melanoma (SK-MEL-2) cell lines were obtained from the American Type Culture Collection (ATCC). All cell lines were cultured in minimum essential medium containing Earle's salts and L-glutamine (Mediatech Cellgro, Va.), to which was added 10% fetal bovine serum (Hyclone), vitamins (1×), penicillin (100 I.U./mL) and streptomycin (100 μg/mL), essential amino acids (1×) and sodium pyruvate (1×) (Mediatech Cellgro, Va.). Cells were kept at 37° C. in a humidified environment containing 5% CO2.
(§3) Exponentially growing cells were plated in 96-well microplates (Costar, Corning Inc.) at a density of 5×10^3 cells per well in 100 μL of culture medium and were allowed to adhere for 16 hours before treatment. Increasing concentrations of each compound in DMSO (Sigma-Aldrich) were then added (100 μL per well) and the cells were incubated for 48 h. […] Cytotoxicity was assessed using resazurin (O'Brien, J. et al., Eur. J. Biochem. 2000, 267, 5421-5426) on an automated 96-well Fluoroskan Ascent F1™ plate reader (Labsystems) using excitation and emission wavelengths of 530 nm and 590 nm, respectively. Fluorescence was proportional to the cellular metabolic activity in each well. Survival percentage was defined as the fluorescence in experimental wells compared to that in control wells after subtraction of blank values. Each experiment was carried out three times in triplicata. IC50 results were expressed as mean±standard deviation.
(§4) Compounds presented in Table 5 below were also tested in the following tumour cell lines: U-251 (Human glioma), HEP G2 (Human hepatocellular carcinoma), PC-3 (Human prostate adenocarcinoma), PA-1 (Human ovary teratocarcinoma metastatic), MDA-MB-231 (Human breast adenocarcinona metastatic), MCF-7 (Human breast adenocarcinoma) and SK-MEL-2 (Human malignant melanoma).

[5] = Determination of the maximum tolerated dose (MTD) after a single IP injection; assay type: in vivo, mice; conditions: for CSS Closed eyes / CSS Diarrhea / CSS Lethargy / CSS Rough coat / CSS Total / Number of deaths: 5 mice
Description: Groups of five mice (Charles River) received a single IP injection of 3-O-α-L-rhamnopyranoside betulinic acid (22) in DMSO at doses of 50, 100, 250 and 500 mg/kg of body weight. […] A group of five control mice received the vehicle (DMSO). […] For each animal, a score was calculated based on the absence (value 0) or presence (value 1) of diarrhoea, lethargy, rough coat and closed eyes. A clinical state score (CSS) was then calculated per group by summing individual scores. All the mice were weighed daily during 3 days following the injection. The maximal weight loss was determined 24 hours and 3 days following the injection. The MTD was defined as the highest single dose that met all the following criteria: 1) zero death per group; 2) maximal weight loss 20% in non-tumour bearing animals; and 3) CSS value lower than 15.

[6] = tested on: Hep G2 human hepatocellular carcinoma cells; assay: Cytotoxicity, resazurin metabolism assay, Hep G2; assay type: cell-based; conditions: mean ± SD
Source text: as §2, §3, §4

DLD-1 cells = assay: Cytotoxicity, Hoechst DNA assay, DLD-1; assay type: cell-based, human; conditions: ± SD
In short: (§5)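 Cells grown at 37 °C, 5% CO2, in MEM with 10% FBS. Compound cytotoxicity was measured by Hoechst DNA staining. Activity is expressed as IC50, the concentration inhibiting 50% of cell growth.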

B16-F1 cells = assay: Cytotoxicity, Hoechst DNA assay, B16-F1; assay type: cell-based, mouse; conditions: ± SD
In short: as §5

WS-1 cells = assay: Cytotoxicity, Hoechst DNA assay, WS-1; assay type: cell-based, human; conditions: ± SD
In short: as §5

[7] = tested on: MDA-MB-231 human breast adenocarcinoma cells; assay: Cytotoxicity, resazurin metabolism assay, MDA-MB-231; assay type: cell-based; conditions: mean ± SD
Source text: as §2, §3, §4

U-251 human glioma cells = assay: Cytotoxicity, resazurin metabolism assay, U-251; assay type: cell-based; conditions: mean ± SD
Source text: as §2, §3, §4

[8] = tested on: SK-Mel-2 human melanoma cells; assay: Cytotoxicity, resazurin metabolism assay, SK-Mel-2; assay type: cell-based; conditions: mean ± SD
Source text: as §2, §3, §4

[9] = tested on: MCF-7 human breast adenocarcinoma cells; assay: Cytotoxicity, resazurin metabolism assay, MCF-7; assay type: cell-based; conditions: mean ± SD
Source text: as §2, §3, §4

[10] = tested on: WS-1 human normal skin fibroblasts; assay: Cytotoxicity, resazurin metabolism assay, WS-1; assay type: cell-based; conditions: 48 h, mean ± SD
In short: as §1

C=C(C)[C@@H]1CC[C@]2(C(=O)O)CC[C@]3(C)[C@H](CC[C@@H]4[C@@]5(C)CC[C@H](O[C@@H]6O[C@@H](C)[C@H](O)[C@@H](O)[C@H]6O)C(C)(C)[C@@H]5CC[C@]43C)[C@@H]12 [Compound 22, 3-O-α-L-Rhamnopyranoside of betulinic acid]
IC50 [1]: 3.9 ± 0.4 µM
IC50 [2]: 3.9 ± 0.4 µM
Toxicity / body weight loss compared with controls [3]: did not show any sign of toxicity or body weight loss
IC50 [4]: 20 ± 6 µM
Max. weight loss after 24 hours ([5]; 50 mg/kg single IP): 11%
Max. weight loss after 3 days ([5]; 50 mg/kg single IP): 0%
CSS Closed eyes ([5]; 50 mg/kg single IP): 0
CSS Diarrhea ([5]; 50 mg/kg single IP): 0
CSS Lethargy ([5]; 50 mg/kg single IP): 0
CSS Rough coat ([5]; 50 mg/kg single IP): 0
CSS Total ([5]; 50 mg/kg single IP): 0
Number of deaths ([5]; 50 mg/kg single IP): 0
Max. weight loss after 24 hours ([5]; 100 mg/kg single IP): 14%
Max. weight loss after 3 days ([5]; 100 mg/kg single IP): 0%
CSS Closed eyes ([5]; 100 mg/kg single IP): 0
CSS Diarrhea ([5]; 100 mg/kg single IP): 0
CSS Lethargy ([5]; 100 mg/kg single IP): 0
CSS Rough coat ([5]; 100 mg/kg single IP): 0
CSS Total ([5]; 100 mg/kg single IP): 0
Number of deaths ([5]; 100 mg/kg single IP): 0
Max. weight loss after 24 hours ([5]; 250 mg/kg single IP): 9%
Max. weight loss after 3 days ([5]; 250 mg/kg single IP): 0%
CSS Closed eyes ([5]; 250 mg/kg single IP): 5
CSS Diarrhea ([5]; 250 mg/kg single IP): 0
CSS Lethargy ([5]; 250 mg/kg single IP): 0
CSS Rough coat ([5]; 250 mg/kg single IP): 5
CSS Total ([5]; 250 mg/kg single IP): 10
Number of deaths ([5]; 250 mg/kg single IP): 0
Max. weight loss after 24 hours ([5]; 500 mg/kg single IP): 11%
Max. weight loss after 3 days ([5]; 500 mg/kg single IP): 0%
Rough coat and closed eyes observed, share of the mice ([5]; 500 mg/kg single IP): 100%
CSS Closed eyes ([5]; 500 mg/kg single IP): 5
CSS Diarrhea ([5]; 500 mg/kg single IP): 5
CSS Lethargy ([5]; 500 mg/kg single IP): 2
CSS Rough coat ([5]; 500 mg/kg single IP): 5
CSS Total ([5]; 500 mg/kg single IP): 17
Number of deaths ([5]; 500 mg/kg single IP): 0
Calculated dose for an average human weighting 60 kg ([5]; 60 kg human): 139.8 mg
Body weight loss after 24 h ([5]; all tested doses (50-500 mg/kg), single IP): 9-14%
Mortality ([5]; all tested doses, single IP): no mortality
Weight loss after 3 days (returned to initial weight) ([5]; all tested doses, single IP): 0%
Calculated MTD (human, after security factor of 10) ([5]; human equivalent dose divided by 10): 2.33 mg/kg
MTD (maximum tolerated dose) ([5]; mice, single IP injection in DMSO): 250 mg/kg
MTD equivalent in human (human equivalent dose) ([5]; mouse MTD 250 mg/kg divided by conversion factor 12.3): 20.33 mg/kg
IC50 [6]: 20 ± 2 µM
IC50 (DLD-1 cells): 3.4 ± 0.5 µM
IC50 (B16-F1 cells): 4.2 ± 0.5 µM
IC50 (WS-1 cells): 38 ± 6 µM
IC50 [7]: 19 ± 2 µM
IC50 (U-251 human glioma cells): 20 ± 2 µM
IC50 [8]: 20 ± 7 µM
IC50 [9]: 16 ± 2 µM
IC50 [10]: 31 ± 3 µM
